US12581252B2, “Substituted pyrrolo[3,4-b]pyridines as PI3K-α inhibitors” (Relay Therapeutics, Inc., priority 2020, dated 2026)
pIC50: −log10 of the molar value.

What was measured:
H1047R PIK3CA enzyme = H1047R PIK3CA enzyme (Homo sapiens, UniProt P42336, H1047R); assay: ADP-Glo Biochemical PIK3CA Kinase Assay
cells = conditions: Homo sapiens, MCF-10A, read-out: MCF10A IC50

Sequence of H1047R PIK3CA enzyme (P42336 whole entry H1047R): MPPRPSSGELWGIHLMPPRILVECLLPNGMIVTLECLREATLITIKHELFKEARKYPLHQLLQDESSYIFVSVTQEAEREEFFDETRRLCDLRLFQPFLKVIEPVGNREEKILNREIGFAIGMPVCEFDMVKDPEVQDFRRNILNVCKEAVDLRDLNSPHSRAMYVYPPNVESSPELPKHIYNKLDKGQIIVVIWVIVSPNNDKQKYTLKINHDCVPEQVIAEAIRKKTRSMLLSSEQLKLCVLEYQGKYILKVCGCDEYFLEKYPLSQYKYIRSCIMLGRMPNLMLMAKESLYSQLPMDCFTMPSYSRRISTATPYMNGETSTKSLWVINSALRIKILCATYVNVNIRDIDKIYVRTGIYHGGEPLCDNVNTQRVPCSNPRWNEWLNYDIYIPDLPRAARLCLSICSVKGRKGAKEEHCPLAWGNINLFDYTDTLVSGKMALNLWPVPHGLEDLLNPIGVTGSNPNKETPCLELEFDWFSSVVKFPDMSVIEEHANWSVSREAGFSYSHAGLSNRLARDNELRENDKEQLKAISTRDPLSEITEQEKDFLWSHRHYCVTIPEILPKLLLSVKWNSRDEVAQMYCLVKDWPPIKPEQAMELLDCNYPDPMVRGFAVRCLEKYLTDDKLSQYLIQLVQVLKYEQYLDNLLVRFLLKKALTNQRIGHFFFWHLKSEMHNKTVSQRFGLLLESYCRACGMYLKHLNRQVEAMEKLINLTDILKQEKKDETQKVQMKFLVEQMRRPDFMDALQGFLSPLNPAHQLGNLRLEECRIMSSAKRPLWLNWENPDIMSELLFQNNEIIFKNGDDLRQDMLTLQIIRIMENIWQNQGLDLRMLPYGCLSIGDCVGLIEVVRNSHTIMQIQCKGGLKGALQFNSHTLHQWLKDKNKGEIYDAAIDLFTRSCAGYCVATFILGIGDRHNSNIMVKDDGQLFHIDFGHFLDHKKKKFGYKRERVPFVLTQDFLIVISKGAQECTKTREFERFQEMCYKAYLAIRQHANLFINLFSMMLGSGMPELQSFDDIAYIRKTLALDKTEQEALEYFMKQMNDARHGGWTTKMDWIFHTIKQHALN
Sequence of H1047R PIK3CA enzyme (P27986 whole entry partner): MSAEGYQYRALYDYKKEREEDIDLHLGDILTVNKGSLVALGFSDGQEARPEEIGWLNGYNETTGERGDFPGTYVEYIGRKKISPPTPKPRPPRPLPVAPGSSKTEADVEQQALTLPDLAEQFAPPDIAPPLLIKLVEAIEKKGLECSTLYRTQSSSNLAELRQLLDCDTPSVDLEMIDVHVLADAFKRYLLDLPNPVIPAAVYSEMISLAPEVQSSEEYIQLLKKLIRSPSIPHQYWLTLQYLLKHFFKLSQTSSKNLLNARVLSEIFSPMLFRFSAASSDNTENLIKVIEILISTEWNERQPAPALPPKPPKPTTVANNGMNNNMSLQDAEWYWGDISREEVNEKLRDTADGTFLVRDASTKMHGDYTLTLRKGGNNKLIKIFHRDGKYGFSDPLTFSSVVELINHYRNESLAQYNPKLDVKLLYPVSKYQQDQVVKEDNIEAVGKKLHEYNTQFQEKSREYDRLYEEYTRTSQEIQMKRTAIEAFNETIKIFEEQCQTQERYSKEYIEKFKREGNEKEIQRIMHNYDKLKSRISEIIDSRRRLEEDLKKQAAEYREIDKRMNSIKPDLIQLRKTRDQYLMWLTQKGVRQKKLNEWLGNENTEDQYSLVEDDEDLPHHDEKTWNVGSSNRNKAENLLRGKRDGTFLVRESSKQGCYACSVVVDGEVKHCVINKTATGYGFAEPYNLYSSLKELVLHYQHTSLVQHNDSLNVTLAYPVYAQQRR

Row | Compound | pIC50 (H1047R PIK3CA enzyme) | pIC50 (cells)
1 | O=C1NC(c2cc(F)ccc2Cl)c2c(NC(=O)N3CC(C(F)F)c4ccccc43)cccc21 (mixture of isomers) [Compound I-2246] | ≥ 7.00 | 5.30 to 6.00
2 | O=C1NC(c2cc(F)ccc2Cl)c2c(NC(=O)N3CC(O)c4cc(F)ccc43)cc(-n3cncn3)cc21 (mixture of isomers) [Compound I-2414] | 6.30 to 7.00 | 4.44 to 5.00
3 | O=C1NC(c2cc(F)ccc2Cl)c2c(NC(=O)N3CC(O)(C(F)F)c4ccccc43)cccc21 (mixture of isomers) [Compound I-2423] | ≥ 7.00 | 5.30 to 6.00
4 | O=C1NC(c2cc(F)ccc2Cl)c2c(NC(=O)N3CC(O)c4ccc(Cl)cc43)cccc21 (mixture of isomers) [Compound I-2464] | ≥ 7.00 | 5.00 to 5.30
5 | O=C1NC(c2cc(F)ccc2Cl)c2c(NC(=O)N3CC(O)(C(F)(F)F)c4cc(F)ccc43)cc(Cl)cc21 (mixture of isomers) [Compound I-2482] | ≥ 7.00 | > 6.00
6 | O=C1NC(c2cc(F)ccc2Cl)c2c(NC(=O)N3CC(O)(C(F)(F)F)c4ccccc43)cc(Cl)cc21 (mixture of isomers) [Compound I-2483] | ≥ 7.00 | > 6.00
7 | O=C1NC(c2cc(F)ccc2Cl)c2c(NC(=O)N3CC(O)(C(F)F)c4cc(F)ccc43)cccc21 (mixture of isomers) [Compound I-2488] | ≥ 7.00 | 5.30 to 6.00
8 | N#CC1(COc2cc(NC(=O)N3CC(O)c4cc(F)ccc43)c3c(c2)C(=O)NC3c2cc(F)ccc2Cl)CC1 (mixture of isomers) [Compound I-2489] | ≥ 7.00 | 5.00 to 5.30
9 | N#CCc1cc(NC(=O)N2CC(O)(C(F)(F)F)c3ccccc32)c2c(c1)C(=O)NC2c1cc(F)ccc1Cl (mixture of isomers) [Compound I-2585] | ≥ 7.00 | > 6.00
10 | N#CCc1cc(NC(=O)N2CC(O)(C(F)(F)F)c3cc(F)ccc32)c2c(c1)C(=O)NC2c1cc(F)ccc1Cl (mixture of isomers) [Compound I-2596] | ≥ 7.00 | > 6.00
11 | CNC(=O)c1cc(NC(=O)c2csc3ccccc23)c2c(c1)C(=O)NC2c1ccccc1C (racemic) [Compound I-6, 7-(Benzo[b]thiophene-3-carboxamido)-N-methyl-3-oxo-1-(o-tolyl)isoindoline-5-carboxamide] | ≥ 7.00 | > 6.00
12 | N#CCc1cc(NC(=O)c2cc(F)cc(C(F)(F)F)c2)c2c(c1)C(=O)N[C@H]2c1cc(F)ccc1Cl (racemic) [Compound I-1088] | ≥ 7.00 | > 6.00
13 | O=C(Nc1cc(-c2ccc3ncnn3c2)cc2c1[C@H](c1cc(F)ccc1Cl)NC2=O)c1cc(F)cc(C(F)(F)F)c1 (single isomer, unassigned) [Compound I-945] | ≥ 7.00 | > 6.00
14 | Cn1cc(Nc2cc(NC(=O)c3cc(F)cc(C(F)(F)F)c3)c3c(c2)C(=O)N[C@H]3c2cc(F)ccc2Cl)cn1 (single isomer, unassigned) [Compound I-997] | ≥ 7.00 | > 6.00
15 | N#Cc1ccc(-c2cc(NC(=O)c3cc(F)cc(C(F)(F)F)c3)c3c(c2)C(=O)N[C@@H]3c2cc(F)ccc2Cl)cn1 (single isomer, unassigned) [Compound I-1000] | ≥ 7.00 | > 6.00
16 | O=C(Nc1cc(-c2cnn(C3CC3)c2)cc2c1[C@H](c1cc(F)ccc1Cl)NC2=O)c1cc(F)cc(C(F)(F)F)c1 (single isomer, unassigned) [Compound I-1022] | ≥ 7.00 | > 6.00
17 | O=C1N[C@@H](c2cc(F)ccc2Cl)c2c(NC(=O)N3C[C@@H](O)c4ccccc43)cc(Br)cc21 (single isomer, unassigned) [Compound I-1514] | ≥ 7.00 | 5.30 to 6.00
18 | N#Cc1c(-c2cc(NC(=O)c3cc(F)cc(C(F)(F)F)c3)c3c(c2)C(=O)N[C@@H]3c2cc(F)ccc2Cl)ccc2ncnn12 (single isomer, unassigned) [Compound I-1647] | – | 5.30 to 6.00
19 | N#Cc1c(-c2cc(NC(=O)c3cc(F)cc(C(F)(F)F)c3)c3c(c2)C(=O)N[C@H]3c2cc(F)ccc2Cl)ccc2ncnn12 (single isomer, unassigned) [Compound I-1648] | – | > 6.00
20 | O=C(Nc1cc(-c2cnn(C(F)F)c2)cc2c1[C@H](c1cc(F)ccc1Cl)NC2=O)c1cc(F)cc(C(F)(F)F)c1 (single isomer, unassigned) [Compound I-1740] | ≥ 7.00 | > 6.00
21 | CC(C)(O)c1cc(NC(=O)N2C[C@@H](O)c3ccccc32)c2c(c1)C(=O)N[C@H]2c1cc(F)ccc1Cl (single isomer, unassigned) [Compound I-2124] | ≥ 7.00 | 5.30 to 6.00
22 | O=C1N[C@@H](c2cc(F)ccc2Cl)c2c(NC(=O)N3C[C@@H](O)c4cc(F)ccc43)cccc21 (single isomer, unassigned) [Compound I-2127] | ≥ 7.00 | > 6.00
23 | Nc1cc(NC(=O)N2C[C@@H](O)c3ccccc32)c2c(c1)C(=O)N[C@H]2c1cc(F)ccc1Cl (single isomer, unassigned) [Compound I-2133] | ≥ 7.00 | > 6.00
24 | O=C1N[C@@H](c2cc(F)ccc2Cl)c2c(NC(=O)N3C[C@H](O)c4c(F)cccc43)cccc21 (single isomer, unassigned) [Compound I-2142] | ≥ 7.00 | > 6.00

Row | Compound | pIC50 (H1047R PIK3CA enzyme) | pIC50 (cells)
25 | C[C@]1(O)CN(C(=O)Nc2cccc3c2[C@H](c2cc(F)ccc2Cl)NC3=O)c2ccccc21 (single isomer, unassigned) [Compound I-2205] | ≥ 7.00 | > 6.00
26 | O=C(Nc1cc(-c2cn3ncnc3cn2)cc2c1[C@H](c1cc(F)ccc1C(F)F)NC2=O)c1cc(F)cc(Cl)c1 (single isomer, unassigned) [Compound I-2259] | ≥ 7.00 | > 6.00
27 | C[C@]1(C(=O)Nc2cc(Br)cc3c2[C@@H](c2cc(F)ccc2Cl)NC3=O)CCC[C@@H](C(F)(F)F)C1 (single isomer, unassigned) [Compound I-2261] | ≥ 7.00 | > 6.00
28 | C[C@@]1(C(=O)Nc2cc(Br)cc3c2[C@H](c2cc(F)ccc2Cl)NC3=O)CCC[C@H](C(F)(F)F)C1 (single isomer, unassigned) [Compound I-2262] | 6.30 to 7.00 | 5.30 to 6.00
29 | O=C1N[C@@H](c2cc(F)ccc2Cl)c2c(NC(=O)N3C[C@@H](O)c4cc(F)c(F)cc43)cccc21 (single isomer, unassigned) [Compound I-2293] | ≥ 7.00 | > 6.00
30 | O=C1N[C@H](c2cc(F)ccc2Cl)c2c(NC(=O)N3C[C@H](O)c4c3ccc(F)c4F)cccc21 (single isomer, unassigned) [Compound I-2310] | ≥ 7.00 | > 6.00
31 | O=C(Nc1cc(NC2=NC[C@@H](C(F)(F)F)O2)cc2c1[C@H](c1cc(F)ccc1Cl)NC2=O)c1cc(F)cc(C(F)(F)F)c1 (single isomer, unassigned) [Compound I-2324] | ≥ 7.00 | > 6.00
32 | O=C1N[C@H](c2cc(F)ccc2Cl)c2c(NC(=O)N3C[C@H](C(F)F)c4ccccc43)cccc21 (single isomer, unassigned) [Compound I-2333] | ≥ 7.00 | 5.30 to 6.00
33 | O=C1N[C@@H](c2cc(F)ccc2Cl)c2c(NC(=O)N3C[C@@H](C(F)F)c4ccccc43)cccc21 (single isomer, unassigned) [Compound I-2334] | ≥ 7.00 | 5.30 to 6.00
34 | N#CCCc1cc(NC(=O)N2C[C@H](O)c3cc(F)ccc32)c2c(c1)C(=O)N[C@H]2c1cc(F)ccc1Cl (single isomer, unassigned) [Compound I-2346] | ≥ 7.00 | 5.30 to 6.00
35 | O=C1N[C@@H](c2cc(F)ccc2Cl)c2c(NC(=O)N3C[C@H](O)c4cc(F)ccc43)cc(-n3ccccc3=O)cc21 (single isomer, unassigned) [Compound I-2350] | ≥ 7.00 | 5.00 to 5.30
36 | O=C1N[C@@H](c2cc(F)ccc2Cl)c2c(NC(=O)N3CCc4cc(F)ccc43)cc(-c3cnn(C(F)F)c3)cc21 (single isomer, unassigned) [Compound I-2357] | ≥ 7.00 | > 6.00
37 | O=C1N[C@@H](c2cc(F)ccc2Cl)c2c(NC(=O)N3C[C@H](O)c4cc(F)ccc43)cc(-n3cccn3)cc21 (single isomer, unassigned) [Compound I-2364] | ≥ 7.00 | 5.30 to 6.00
38 | O=C1N[C@H](c2cc(F)ccc2Cl)c2c(NC(=O)N3C[C@H](O)c4cc(F)ccc43)cc(-n3ccnn3)cc21 (single isomer, unassigned) [Compound I-2369] | ≥ 7.00 | 5.30 to 6.00
39 | O=C1N[C@@H](c2cc(F)ccc2Cl)c2c(NC(=O)N3C[C@@](O)(C(F)(F)F)c4ccccc43)cccc21 (single isomer, unassigned) [Compound I-2386] | ≥ 7.00 | > 6.00
40 | O=C(Nc1cc(NC2=N[C@H](C(F)(F)F)CO2)cc2c1[C@H](c1cc(F)ccc1Cl)NC2=O)c1cc(F)cc(C(F)(F)F)c1 (single isomer, unassigned) [Compound I-2387] | ≥ 7.00 | 5.30 to 6.00
41 | O=C(Nc1cc(NC2=N[C@@H](C(F)(F)F)CO2)cc2c1[C@H](c1cc(F)ccc1Cl)NC2=O)c1cc(F)cc(C(F)(F)F)c1 (single isomer, unassigned) [Compound I-2388] | ≥ 7.00 | 5.30 to 6.00
42 | O=C1N[C@H](c2cc(F)ccc2Cl)c2c(NC(=O)N3C[C@@H](O)c4cc(F)ccc43)cc(Cl)cc21 (single isomer, unassigned) [Compound I-2402] | ≥ 7.00 | > 6.00
43 | O=C1NC(c2cc(F)ccc2Cl)c2c(NC(=O)N3CCc4ccc(OC(F)(F)F)cc43)cccc21 (stereo not drawn) [Compound I-2480] | 5.00 to 6.00 | –
44 | O=C1NC(c2cc(F)ccc2Cl)c2c(NC(=O)N3CCc4cc(OC(F)(F)F)ccc43)cccc21 (stereo not drawn) [Compound I-2481] | 5.00 to 6.00 | –
45 | CC1(Cc2cc(NC(=O)N3CC(O)c4cc(F)ccc43)c3c(c2)C(=O)NC3c2cc(F)ccc2Cl)COC1 (stereo not drawn) [Compound I-2490] | 6.00 to 6.30 | –
46 | O=C1NC(c2cc(F)ccc2Cl)c2c(NC(=O)N3CCc4c3cccc4C(F)(F)F)cccc21 (stereo not drawn) [Compound I-2498] | 5.00 to 6.00 | –
47 | CNc1cc(NC(=O)N2C[C@](O)(C(F)F)c3cc(F)ccc32)c2c(c1)C(=O)N[C@@H]2c1cc(F)ccc1Cl [Compound I-2677] | ≥ 7.00 | –
